Measured values: ChEMBL document CHEMBL5375968, “Peptide TK-HR from the Skin of Chinese Folk Medicine Frog Hoplobatrachus Rugulosus Accelerates Wound Healing via the Activation of the Neurokinin-1 Receptor” (J Med Chem, 2023)
Calls of active or inactive are those of the source. The calls are words filed in the database; no cut-off is given here.

Columns and labels:
RAW264.7 [1] = assay: Upregulation of phosphorylated Smad2 level in Aprepitant-treated mouse RAW264.7 cells at 2.5 to 20 uM incubated for 4 hrs by Western blot analysis; type: functional, cell-based; details: dose 2.5-20 µM
[2] = Induction of wound healing in BALB/c mouse model of full-thickness wounds at 50 ug/ml, TOP bid measured after 4 days (reference value: 48.6 %); type: functional; details: dose 50 µg/ml, time 4 day
Cutibacterium acnes = assay: Antimicrobial activity against Propionibacterium acnes ATCC 6919 assessed as microbial growth inhibition at 100 uM; type: functional, organism-based
[3] = Induction of wound healing in BALB/c mouse model of full-thickness wounds at 200 ug/ml, TOP bid measured after 4 days (reference value: 48.6 %); type: functional; details: dose 200 µg/ml, time 4 day
HaCaT [4] = assay: Induction of cell migration in Aprepitant-treated human HaCaT cells assessed as healing rate at 20 uM measured after 24 hrs by scratch healing assay (reference value: 36.8 %); type: functional
Mus musculus [5] = species: Mus musculus; assay: Induction of wound healing in BALB/c mouse model of full-thickness wounds assessed as increase in recruitment of total macrophages in wound skin at 50 ug/ml, TOP bid measured after 2 days by IHC analysis; type: functional; details: dose 50.0 µg/ml, time 2.0 day
Mus musculus [6] = species: Mus musculus; assay: Induction of wound healing in BALB/c mouse model of full-thickness wounds assessed as decrease in recruitment of M1-type macrophages in wound skin at 50 ug/ml, TOP bid measured after 4 days by IHC analysis; type: functional; details: dose 50.0 µg/ml, time 4.0 day
[7] = Induction of wound healing in BALB/c mouse model of full-thickness wounds at 50 ug/ml, TOP bid measured after 6 days (reference value: 71.7 %); type: functional; details: dose 50 µg/ml, time 6 day
Neutrophil = assay: Induction of ROS production in BALB/c mouse neutrophils at 10 to 20 uM incubated for 2 hrs by DCFH-DA staining based analysis; type: functional, cell-based; details: dose 10-20 µM
[8] = Induction of wound healing in BALB/c mouse model of full-thickness wounds at 200 ug/ml, TOP bid measured after 6 days (reference value: 71.7 %); type: functional; details: dose 200 µg/ml, time 6 day
RAW264.7 [9] = assay: Induction of phagocytosis in mouse RAW264.7 cells cultured with Escherichia coli ATCC 25922 assessed as number of surviving engulfed bacteria at 10 uM incubated for 24 hrs followed by bacterial exposure for 1 hr and further treated with gentamycin for 2 hrs by plate counting method (reference value: 37); type: functional
RAW264.7 [10] = assay: Upregulation of phosphorylated Smad2 level in mouse RAW264.7 cells at 2.5 to 20 uM incubated for 4 hrs by Western blot analysis; type: functional, cell-based; details: dose 2.5-20 µM
Mus musculus [11] = species: Mus musculus; assay: Induction of wound healing in BALB/c mouse model of full-thickness wounds assessed as increase in TGF-1beta production in wound skin at 50 to 200 ug/ml, TOP bid measured after 2 to 4 days by ELISA; type: functional; details: dose 50-200 µg/ml, time 2-4 day
RAW264.7 [12] = assay: Induction of phagocytosis in mouse RAW264.7 cells assessed as increase in neutral red dye uptake by measuring optical density at 540 nm at 5 uM incubated for 24 hrs followed by dye addition measured after 4 hrs by absorbance based assay (reference value: 0.073); type: functional; details: time 28 hrs
RAW264.7 [13] = assay: Induction of IL-1beta expression in mouse RAW264.7 cells incubated for 24 hrs by ELISA; type: functional, cell-based; details: dose 2.5-20 µM
HUVEC [14] = assay: Induction of cell migration in Aprepitant-treated HUVEC cells assessed as healing rate at 20 uM measured after 48 hrs by scratch healing assay (reference value: 57.2 %); type: functional, Homo sapiens
[15] = Induction of wound healing in BALB/c mouse model of full-thickness wounds assessed as recruitment of M1-type macrophages in wound skin at 50 ug/ml, TOP bid measured after 4 days by flow cytometry (reference value: 85.3 %); type: functional; details: dose 50 µg/ml, time 4 day
HUVEC [16] = assay: Induction of cell migration in HUVEC cells assessed as formation of filopodia extensions at 20 uM measured after 24 hrs by immunofluorescence microscopy; type: functional, cell-based; details: Homo sapiens
RAW264.7 [17] = assay: Effect on total Smad3 level in mouse RAW264.7 cells at 2.5 to 20 uM incubated for 4 hrs by Western blot analysis; type: functional, cell-based; details: dose 2.5-20 µM
HUVEC [18] = assay: Angiogenic activity in HUVEC cells assessed as increase in tube formation at 5 uM measured for 4 hrs by microscopic analysis relative to control; type: functional, Homo sapiens
HUVEC [19] = assay: Induction of cell migration in HUVEC cells assessed as formation of cytoplasmic protrusions at 20 uM measured after 24 hrs by immunofluorescence microscopy; type: functional, cell-based; details: Homo sapiens
[20] = Induction of wound healing in BALB/c mouse model of full-thickness wounds at 50 ug/ml, TOP bid pretreated with Aprepitant for 2 hrs followed by compound administration measured after 2 days (reference value: 35.3 %); type: functional; details: dose 50 µg/ml, time 2 day
RAW264.7 [21] = assay: Induction of IL-6 expression in mouse RAW264.7 cells incubated for 24 hrs by ELISA; type: functional, cell-based; details: dose 2.5-20 µM
Mus musculus [22] = species: Mus musculus; assay: Induction of wound healing in BALB/c mouse model of full-thickness wounds assessed as decrease in TNF-alpha level in wound skin at 50 ug/ml, TOP bid measured after 4 days by ELISA; type: functional; details: dose 50.0 µg/ml, time 4.0 day
Splenic fibroblast [23] = assay: Effect on cell migration in human […] fibroblasts at 20 uM incubated upto 48 hrs by scratch healing assay; type: functional, cell-based
[24] = Induction of wound healing in BALB/c mouse model of full-thickness wounds at 200 ug/ml, TOP bid measured after 2 days (reference value: 30.4 %); type: functional; details: dose 200 µg/ml, time 2 day
HUVEC [25] = assay: Induction of cell migration in Mitomycin C-treated HUVEC cells assessed as healing rate at 20 uM measured after 24 hrs by scratch healing assay (reference value: 30.2 %); type: functional, Homo sapiens
[26] = Induction of wound healing in BALB/c mouse model of full-thickness wounds assessed as alpha-SMA level below wound surface at 50 to 200 ug/ml, TOP bid measured after 8 days by IHC analysis (reference value: 16.4 %); type: functional; details: dose 50-200 µg/ml, time 8 day, at 50 to 200 µg/mL
HUVEC [27] = assay: Induction of cell migration in HUVEC cells assessed as healing rate at 20 uM measured after 48 hrs by scratch healing assay (reference value: 57.2 %); type: functional, Homo sapiens
Splenic fibroblast [28] = assay: Effect on cell proliferation in human […] fibroblasts at 5 to 40 uM incubated for 24 hrs by MTT assay; type: functional, cell-based; details: dose 5-40 µM
HaCaT [29] = assay: Induction of cell migration in Aprepitant-treated human HaCaT cells assessed as healing rate at 20 uM measured after 48 hrs by scratch healing assay (reference value: 63.1 %); type: functional
Splenic fibroblast [30] = assay: Effect on TGF-1beta production in human […] fibroblasts at 5 to 40 uM incubated for 24 hrs by ELISA; type: functional, cell-based; details: dose 5-40 µM
Mus musculus [31] = species: Mus musculus; assay: Induction of wound healing in BALB/c mouse model of full-thickness wounds assessed as increase in TNF-alpha level in wound skin at 50 ug/ml, TOP bid measured after 2 days by ELISA; type: functional; details: dose 50.0 µg/ml, time 2.0 day
Mus musculus [32] = species: Mus musculus; assay: Induction of wound healing in BALB/c mouse model of full-thickness wounds assessed as increase in recruitment of M1-type macrophages in wound skin at 50 ug/ml, TOP bid measured after 2 days by IHC analysis; type: functional; details: dose 50.0 µg/ml, time 2.0 day

In the case of H-KPNPDRFYGLM-NH2, the Activity (RAW264.7 [1]) is reported as “inactive”, the Activity [2] is reported as 64.8% and the Activity (Cutibacterium acnes) is reported as “inactive”. The Activity [3] was 77.1%, the Activity (HaCaT [4]) was 41.7% and the Activity (Mus musculus [5]) was “Active”. The Activity (Mus musculus [6]) was “Active”, the Activity [7] was 86.6% and the Activity (Neutrophil) was “Active”. For the same substance, the Activity [8] was 100%, the Activity (RAW264.7 [9]) was 25 and the Activity (RAW264.7 [10]) was “Active”. For the same substance, the Activity (Mus musculus [11]) was “Active”, the OD (RAW264.7 [12]) was 0.103 and the Activity (RAW264.7 [13]) was “Dose-Dependent Effect”. The Activity (HUVEC [14]) was 65%, the Activity [15] was 69.9% and the Activity (HUVEC [16]) was “Active”. For the same substance, the Activity (RAW264.7 [17]) was “inactive”, the Activity (HUVEC [18]) was 85.3% and the Activity (HUVEC [19]) was “Active”. The Activity [20] was 38.7%, the Activity (RAW264.7 [21]) was “Dose-Dependent Effect” and the Activity (Mus musculus [22]) was “Active”. For the same substance, the Activity (Splenic fibroblast [23]) was “inactive”, the Activity [24] was 52.8% and the Activity (HUVEC [25]) was 43.7%. For the same substance, the Activity [26] was 40.4%, the Activity (HUVEC [27]) was 83.4% and the Activity (Splenic fibroblast [28]) was “inactive”. For the same substance, the Activity (HaCaT [29]) was 76.1%, the Activity (Splenic fibroblast [30]) was “inactive” and the Activity (Mus musculus [31]) was “Active”. The Activity (Mus musculus [32]) was “Active”.
